We go through five compounds from publication PMC11604427 (Frontiers in Pharmacology, 2024).

Assay [1] addresses T1, Human recombinant HDAC2 enzyme (Homo sapiens, UniProt Q92769).
T1 construct: purchased Abcam
Description: HDAC2 fluorescence enzyme inhibition assay (Boc-Lys(acetyl)-AMC). It is filed as biochemical. The settings on record: fluorescence signal-based method. How it is done:
Firstly, a 96-well plate was loaded with a blend comprising 10 μL of HDAC2 enzyme solution and 50 μL of the test compounds at assorted concentrations, followed by incubation at a temperature of 37°C for a duration of 5 min. Subsequently, 10 μL of the fluorescent substrate Boc-Lys (acetyl)-AMC was added and continued for 30 min. Finally, 100 μL of developer containing trypsin and TSA was injected into each well and incubated for 20 min.

The target in assay [2] is T2, Human recombinant PKMYT1 enzyme (Homo sapiens, UniProt Q99640).
T2 construct: purchased Abcam
T2 sequence (Q99640 1-499): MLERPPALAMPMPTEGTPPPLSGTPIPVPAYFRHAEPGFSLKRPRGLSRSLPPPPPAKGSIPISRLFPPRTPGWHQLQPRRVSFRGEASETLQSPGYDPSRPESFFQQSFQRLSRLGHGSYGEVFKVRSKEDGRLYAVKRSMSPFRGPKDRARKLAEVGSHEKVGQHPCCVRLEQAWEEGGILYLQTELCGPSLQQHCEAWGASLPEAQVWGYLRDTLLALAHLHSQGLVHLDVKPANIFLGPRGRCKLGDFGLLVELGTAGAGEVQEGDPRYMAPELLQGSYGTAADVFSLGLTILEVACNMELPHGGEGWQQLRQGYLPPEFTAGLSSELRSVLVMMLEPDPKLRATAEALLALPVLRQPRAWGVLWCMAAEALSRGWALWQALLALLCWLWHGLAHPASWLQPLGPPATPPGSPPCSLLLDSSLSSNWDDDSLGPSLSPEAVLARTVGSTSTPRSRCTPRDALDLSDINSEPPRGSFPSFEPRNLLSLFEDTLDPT
Description: ADP-GLO enzyme inhibition assay. It counts as biochemical. The settings on record: ADP-GLO method. As for the experimental part: The ADP-GLO™ kinase assay kit, purchased from Promega Corporation (Madison, WI, United States), included the ADP-GLO reagent, the kinase assay reagent, and ultra-pure ATP and ADP. PKMYT1 enzyme was dissolved in 5 μL of freshly prepared enzyme assay buffer containing 70 mM Hepes, 3 mM MgCl2, 3 mM MnCl2, 50 μg/mL PEG20000, 3 μM sodium orthovanadate, 1.2 mM dithiothreitol, and then injected into 384-well plates. […] The enzymatic reaction was initiated by adding 5 μL of ATP, followed by a 60-min incubation at 30°C. Subsequently, 15 μL of ADP-GLO reagent was added, and the incubation was continued for an additional 40 min at room temperature. Then, 30 μL of kinase detection reagent was introduced, and the samples were incubated for a final 30 min. Luminescence measurements were taken using an Envision plate reader (PerkinElmer). The IC50 value of each tested compound was calculated by GraphPad Prism software.

T1 sequence (Q92769 whole entry): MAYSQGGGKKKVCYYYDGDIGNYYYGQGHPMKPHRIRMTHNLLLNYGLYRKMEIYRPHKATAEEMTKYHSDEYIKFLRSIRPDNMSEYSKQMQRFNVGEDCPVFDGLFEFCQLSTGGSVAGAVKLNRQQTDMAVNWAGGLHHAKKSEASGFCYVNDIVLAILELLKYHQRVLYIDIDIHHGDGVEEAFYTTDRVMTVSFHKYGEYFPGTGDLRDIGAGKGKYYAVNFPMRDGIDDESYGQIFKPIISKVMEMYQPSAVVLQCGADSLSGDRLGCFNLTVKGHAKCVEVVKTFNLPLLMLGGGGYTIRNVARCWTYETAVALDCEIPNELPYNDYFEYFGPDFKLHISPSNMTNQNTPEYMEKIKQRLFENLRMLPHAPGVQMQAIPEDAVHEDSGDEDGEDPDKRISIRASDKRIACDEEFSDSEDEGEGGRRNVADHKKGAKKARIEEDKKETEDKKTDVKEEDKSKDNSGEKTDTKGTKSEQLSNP

For `Cc1ccc(O)c(C)c1-n1c(N)c(C(N)=O)c2cc(CCCCCC(=O)NO)c(CCCO)nc21` [PKHD-1], the IC50 (commonly the concentration needed to halve the response being measured) in assay [1] worked out at 8.64 ± 1.35 nM; in assay [2], 11.1 ± 1.86 nM.
For `CCc1nc2c(cc1CCCCCC(=O)NO)c(C(N)=O)c(N)n2-c1c(C)ccc(O)c1C` [PKHD-2], the IC50 in assay [1] is 4.14 ± 0.52 nM; in assay [2], 7.78 ± 0.91 nM.
In the case of `C=CCc1nc2c(cc1CCCCCC(=O)NO)c(C(N)=O)c(N)n2-c1c(C)ccc(O)c1C` [PKHD-3], the figures for the concentration for half-maximal inhibition (IC50) in assay [1] and in assay [2] were 5.47 ± 0.66 nM and 9.26 ± 1.07 nM, respectively.
The like results for `CCCCc1nc2c(cc1CCCCCC(=O)NO)c(C(N)=O)c(N)n2-c1c(C)ccc(O)c1C` [PKHD-4] were, in that order, 7.31 ± 1.12 nM and 13.6 ± 1.94 nM.
As to `O=C(CCCCCCC(=O)Nc1ccccc1)NO` [SAHA, Vorinostat, reference compound], the “PKMYT1 (IC50, nM)” value in assay [2] is “no inhibition”.
